Assay results from ChEMBL document CHEMBL5518180, “Design, synthesis, and biological evaluation of harmine derivatives as topoisomerase I inhibitors for cancer treatment” (Eur J Med Chem, 2024).
Activity calls are given as the source filed them. The rule behind the calls is not given here.

Columns and labels:
[1] = Cytotoxicity against human L02 cells assessed as inhibition of cell growth incubated for 48 hrs by MTT assay; format: toxicity, cell-based
[2] = tested on: A549; test: Antiproliferative activity against human A549 cells assessed as inhibition of cell growth incubated for 48 hrs by MTT assay; format: functional, cell-based; settings: A549, 48 h
[3] = tested on: MDA-MB-231; test: Antiproliferative activity against human MDA-MB-231 cells assessed as inhibition of cell growth incubated for 48 hrs by MTT assay; format: functional, cell-based; settings: MDA-MB-231, 48 h
[4] = tested on: HepG2; test: Antiproliferative activity against human HepG2 cells assessed as inhibition of cell growth incubated for 48 hrs by MTT assay; format: functional, cell-based; settings: HepG2, 48 h
[5] = tested on: PC-3; test: Antiproliferative activity against human PC-3 cells assessed as inhibition of cell growth incubated for 48 hrs by MTT assay; format: functional, cell-based; settings: PC-3, 48 h
[6] = tested on: MCF7; test: Antiproliferative activity against human MCF7 cells assessed as inhibition of cell growth incubated for 48 hrs by MTT assay; format: functional, cell-based; settings: MCF7, 48 h
[7] = tested on: HT-29; test: Antiproliferative activity against human HT-29 cells assessed as inhibition of cell growth incubated for 48 hrs by MTT assay; format: functional, cell-based; settings: HT-29, 48 h
[8] = tested on: MCF7; test: Induction of apoptosis in human MCF7 cells assessed as viable cells at 25 uM incubated for 24 hrs by Annexin V-FITC/Propidium Iodide staining based flow cytometry analysis (reference value: 91.8 %); format: functional; settings: read-out: Activity
[9] = tested on: MCF7; test: Induction of apoptosis in human MCF7 cells assessed as necrotic cells at 25 uM incubated for 24 hrs by Annexin V-FITC/Propidium Iodide staining based flow cytometry analysis (reference value: 0.082 %); format: functional
[10] = tested on: MCF7; test: Induction of apoptosis in human MCF7 cells assessed as early apoptotic cells at 25 uM incubated for 24 hrs by Annexin V-FITC/Propidium Iodide staining based flow cytometry analysis (reference value: 2.54 %); format: functional
[11] = tested on: MCF7; test: Induction of apoptosis in human MCF7 cells assessed as late apoptotic cells at 25 uM incubated for 24 hrs by Annexin V-FITC/Propidium Iodide staining based flow cytometry analysis (reference value: 5.58 %); format: functional
[12] = tested on: 4T1; test: Antitumor activity against mouse 4T1 cells transplanted in BALB/c mouse assessed as tumor growth inhibition rate at 10 mg/kg, ip administered for 14 days relative to control; format: functional; design: scale not given: the % may be the effect or the level left; settings: time 14 day
[13] = tested on: MCF7; test: Induction of DNA damage in human MCF7 cells at 10 uM incubated for 24 hrs by Comet assay; format: functional, cell-based
[14] = tested on: MCF7; test: Induction of DNA double-strand breaks in human MCF7 cells assessed as increase in gamma-H2AX at 10 uM incubated for 48 hrs by DAPI staining based confocal laser scanning microscopy; format: functional, cell-based

Row | Compound | IC50 at 48 h [1] [µM] | IC50 [2] [µM] | IC50 [3] [µM] | IC50 [4] [µM] | IC50 [5] [µM] | IC50 [6] [µM] | IC50 [7] [µM] | viability at 25 µM [8] [%] | Activity [9] [%] | Activity [10] [%] | Activity [11] [%] | Activity [12] [%] | Activity [13] | Activity [14]
1 | O=C(/C=C/c1ccc2c(c1)OCCO2)c1nccc2c1[nH]c1ccccc12 | > 20 | > 20 | 15.2 | 13.2 | > 10 | > 20 | > 20 |  |  |  |  |  |  | 
2 | COc1ccc2[nH]c3c(C(=O)/C=C/c4ccc(F)c(OC)c4)nccc3c2c1 | > 20 | 6.48 | 1.41 | 6.33 | 0.99 | 0.77 | 2.47 |  |  |  |  |  |  | 
3 | COc1ccc2[nH]c3c(C(=O)/C=C/c4c(OC)cccc4OC)nccc3c2c1 | > 20 | 15.3 | 12 | 7.13 | > 10 | 5.71 | 13.6 |  |  |  |  |  |  | 
4 | COc1ccc2[nH]c3c(C(=O)/C=C/c4ccc(Cl)c(C)c4)nccc3c2c1 | > 20 | 7.49 | 6.45 | 2.74 | > 10 | 4.38 | 1.89 |  |  |  |  |  |  | 
5 | COc1ccc2[nH]c3c(C(=O)/C=C/c4ccc(Cl)c([N+](=O)[O-])c4)nccc3c2c1 | > 20 | 5.72 | 2.99 | 7.72 | > 10 | > 20 | > 20 |  |  |  |  |  |  | 
6 | COc1ccc2[nH]c3c(C(=O)/C=C/c4cc(OC)c(OC)cc4Br)nccc3c2c1 | > 20 | 4.51 | > 20 | > 20 | > 10 | 8.05 | 11.3 |  |  |  |  |  |  | 
7 | COc1ccc2[nH]c3c(C(=O)/C=C/c4ccc([N+](=O)[O-])cc4)nccc3c2c1 | > 20 | > 20 | > 20 | > 20 | > 10 | 15.5 | > 20 |  |  |  |  |  |  | 
8 | COc1ccc(/C=C/C(=O)c2nccc3c2[nH]c2ccccc23)c(OC)c1OC | > 20 | > 20 | > 20 | 11.6 | > 10 | > 20 | > 20 |  |  |  |  |  |  | 
9 | COc1ccc2[nH]c3c(C(=O)/C=C/c4cccc(I)c4)nccc3c2c1 | > 20 | > 20 | 8.71 | > 20 | > 10 | 1.58 | 2.34 |  |  |  |  |  |  | 
10 | COc1ccc2c(c1)[nH]c1c(C)nccc12 [HARMINE] | 9.49 |  | 13.2 | 19.2 | 15.6 | 13.4 | 12.2 | 82.7 | 0.055 | 9.74 | 7.48 |  |  | 
11 | COc1ccc2[nH]c3c(C(=O)/C=C/c4cc(F)c(F)c(F)c4)nccc3c2c1 | > 20 | > 20 | 6.52 | 15.9 | > 10 | 4.23 | 2.72 |  |  |  |  |  |  | 
12 | O=C(/C=C/c1ccc([N+](=O)[O-])cc1)c1nccc2c1[nH]c1ccccc12 | > 20 | > 20 | 0.62 | > 20 | > 10 | 5.87 | 3.96 |  |  |  |  |  |  | 
13 | COc1ccc2[nH]c3c(C(=O)/C=C/c4cc(Cl)ccc4Cl)nccc3c2c1 | > 20 | > 20 | 8.13 | > 20 | > 10 | 7.95 | 0.68 |  |  |  |  |  |  | 
14 | COc1ccc2[nH]c3c(C(=O)/C=C/C=C/c4ccccc4)nccc3c2c1 | > 20 | > 20 | > 20 | 18.9 | > 10 | 17.5 | > 20 |  |  |  |  |  |  | 
15 | COc1ccc2[nH]c3c(C(=O)/C=C/c4c(C)cccc4C)nccc3c2c1 | > 20 | > 20 | > 20 | > 20 | > 10 | 10.1 | > 20 |  |  |  |  |  |  | 
16 | O=C(/C=C/c1cccc(Br)c1)c1nccc2c1[nH]c1ccccc12 | 14.3 | 11.8 | 6.44 | 5.89 | 2.69 | 4.99 | 7.24 |  |  |  |  |  |  | 
17 | COc1cc(Br)c(/C=C/C(=O)c2nccc3c2[nH]c2ccccc23)cc1OC | > 20 | 9.83 | 7.03 | 9.65 | > 10 | 2.21 | 3.75 |  |  |  |  |  |  | 

Row | Compound | IC50 at 48 h [1] [µM] | IC50 [2] [µM] | IC50 [3] [µM] | IC50 [4] [µM] | IC50 [5] [µM] | IC50 [6] [µM] | IC50 [7] [µM] | viability at 25 µM [8] [%] | Activity [9] [%] | Activity [10] [%] | Activity [11] [%] | Activity [12] [%] | Activity [13] | Activity [14]
18 | O=C(/C=C/c1cccc(I)c1)c1nccc2c1[nH]c1ccccc12 | > 20 | > 20 | 5.17 | > 20 | > 10 | 1.6 | > 20 |  |  |  |  |  |  | 
19 | O=C(/C=C/c1ccc(Br)cc1)c1nccc2c1[nH]c1ccccc12 | > 20 | 12.2 | 9.21 | > 20 | > 10 | 3.54 | 9.73 |  |  |  |  |  |  | 
20 | CCc1ccc(/C=C/C(=O)c2nccc3c2[nH]c2ccccc23)cc1 | > 20 | > 20 | > 20 | > 20 | > 10 | > 20 | > 20 |  |  |  |  |  |  | 
21 | COc1ccc2[nH]c3c(C(=O)/C=C/c4ccc(Br)cc4)nccc3c2c1 | > 20 | > 20 | 5.67 | 15.7 | 4.18 | 8.45 | 7.74 |  |  |  |  |  |  | 
22 | COc1cc(/C=C/C(=O)c2nccc3c2[nH]c2ccccc23)ccc1F | > 20 | 3.07 | 3.25 | 5.7 | 1.02 | 2.38 | 10.9 |  |  |  |  |  |  | 
23 | O=C(/C=C/c1cc(F)c(F)c(F)c1)c1nccc2c1[nH]c1ccccc12 | 17.8 | 5.73 | 2.05 | 0.96 | 1.19 | 0.88 | 0.89 |  |  |  |  |  |  | 
24 | O=C(/C=C/c1ccccc1Cl)c1nccc2c1[nH]c1ccccc12 | 11.4 | 5.37 | 3.43 | 2.8 | 2.39 | 3.35 | 12.5 |  |  |  |  |  |  | 
25 | CCc1c2c(nc3ccc(OC(=O)N4CCC(N5CCCCC5)CC4)cc13)-c1cc3c(c(=O)n1C2)COC(=O)[C@]3(O)CC [IRINOTECAN] |  |  |  |  |  |  |  |  |  |  |  | 41.27 |  | 
26 | COc1ccc2[nH]c3c(C(=O)/C=C/c4ccc(OC)c(OC)c4OC)nccc3c2c1 | > 20 | 7.1 | > 20 | > 20 | > 10 | 6.1 | 6.08 |  |  |  |  |  |  | 
27 | COc1cccc(OC)c1/C=C/C(=O)c1nccc2c1[nH]c1ccccc12 | > 20 | > 20 | > 20 | > 20 | > 10 | 10.5 | > 20 |  |  |  |  |  |  | 
28 | O=C(/C=C/c1cc(Cl)ccc1Cl)c1nccc2c1[nH]c1ccccc12 | 9.91 | 6.78 | 2.77 | 3.37 | 1.4 | 0.59 | 3.14 |  |  |  |  |  |  | 
29 | COc1ccc(/C=C/C(=O)c2nccc3c2[nH]c2ccccc23)cc1 | > 20 | > 20 | > 20 | > 20 | > 10 | 17.3 | 19 |  |  |  |  |  |  | 
30 | CC[C@@]1(O)C(=O)OCc2c1cc1n(c2=O)Cc2cc3ccccc3nc2-1 [CAMPTOTHECIN] | 0.59 | 7.8 | 0.62 | 1.8 | 6.6 | 6.85 | 1.87 |  |  |  |  |  | Active | Active
31 | COc1ccc2[nH]c3c(C(=O)/C=C/c4cccc(Br)c4)nccc3c2c1 | > 20 | > 20 | > 20 | > 20 | > 10 | > 20 | 0.49 |  |  |  |  |  |  | 
32 | COc1ccc2[nH]c3c(C(=O)/C=C/c4ccccc4Cl)nccc3c2c1 | > 20 | > 20 | 1.43 | > 20 | > 10 | > 20 | 0.52 |  |  |  |  |  |  | 
33 | COc1ccc2[nH]c3c(C(=O)/C=C/c4ccc5c(c4)OCCO5)nccc3c2c1 | > 20 | > 20 | 18.1 | 15.6 | 3.79 | 14.5 | > 20 |  |  |  |  |  |  | 
